Values after ≈ are worked out from the molar mass of the structure shown. Where two headings read alike, the source gives them in different places.
Experiments:
human platelets = test: Ex vivo PAF Acether-induced PA in man after IV administration; details: IV 25 mg, PAF Acether 100 nM
Description: […] DMSO).
The same protocol described hereinabove for rabbit was used in man with only one dose of each Ginkgolide (IV 25 mg) and two blood takes (at 0.5 h and 1 h).

rat portal vein = test: Isolated rat portal vein, PAF Acether-induced increase of basal tonus
Description: In vitro experiments were performed on isolated longitudinal strips of rat portal vein maintained in Krebs-Henseleit medium at 37° C. under an oxygen-rich gaseous circulation (95% O2 -5% CO2).
The preparations were allowed to equilibrate for 1 hour under isotonic conditions with 500 mg tension and rinced every 15 minutes. When myogenic activity was established, PAF Acether (10^-7 M) is added. It induced an increase of the basal tonus and frequency of the myogenic activity.

thermal-injured patients = test: Preliminary clinical trial in thermal-injured patients (open study); assay type: in vivo, human; details: perfusion 5 mg per hour for six hours then 2 mg per hour for 48 hours; 13 patients, burnt surface area >50%
Description: An open study has been performed on 13 thermal-injured patients (total burnt surface area >50%) treated by Ginkgolide B.
The Ginkgolide B was administered in a perfusion (5 mg per hour for six hours and then 2 mg per hour for the following 48 hours).

[1] = system: rabbit plasma-rich platelets (PRP); test: Inhibition of PAF Acether-induced PA, rabbit PRP in vitro; assay type: cell-based; details: Oryctolagus cuniculus, Platelet, average of 10 assays, read-out: IC50 doses on PAF Acether-induced rabbit PA (PRP)
Description: The Inhibition of PAF Acether-induced PA has been studied on rabbit plasma-rich platelets (PRP). Two doses of PAF Acether were used (2.5 nM and 5 nM). The tested compound was added to the medium 3 minutes before PAF Acether and aggregation was followed by monitoring changes in electrical impedance (Whole-Blood aggregometer-chrono-Log); kadsurenone was simultaneously tested as reference compound and the IC50 molar doses of Ginkgolides A, B, C and M and of kadsurenone on PAF Acether-induced rabbit PA (PRP) have been calculated.
The results obtained are presented in the following table (average values for 10 assays for each dose) and FIG. 1: […]

Hartley guinea-pig = test: PAF Acether-induced bronchoconstriction in the anesthetized guinea-pig; assay type: in vivo; details: 1 mg/kg IV
Description: Method: (For details, see B. B. VARGAFTIG, J. LEFORT, F. WAL, M. CHIGNARD and M. C. MEDEIROS-Non-steroidal anti-inflammatory drugs of combined with anti-histamine and anti-serotonin agents interfere with the bronchial and platelet effects of PAF Acether-Enr. J. Pharm. (1982) 82 121-130). Male Hartley guinea-pig (400-500 g) were anesthetized with urethane 2 g/kg Ip., tracheotomised and ventilated by mean of a respiratory pump: 70-80 strokes mn, stroke volume 5 ml, a pneumothorax was done to abolish spontaneous respiration. The right jugular vein was catherized and used for injections.
The initial resistance was kept constant at 10 cm H2 O pressure according to the method of Konzett and Rossler and the overflowed airway was measured with a bronchospasm transducer UGO BASILE connected to a UGO BASILE recorder "GEMINI". Bronchial sensitivity of the animal was checked with acetylcholine (10-40 ng kg^-1 IV) and after constant response was obtained, there were injected, IV, first the propylene glycol and, five minutes later, 60 ng/kg of PAF Acether, which gave the control bronchoconstriction expressed as % of maximal bronchoconstriction given by clamping off the trachea. 40 minutes later, the tested compounds were administered by IV injection and, 5 minutes later, 60 ng/kg of PAF Acether by the same route. This experimentation was conducted on three batches of each 10 animals: first batch for Ginkgolide A, second one for Ginkgolide B and last one for Ginkgolide C, all at the 1 mg/kg dose. The figures of the following table are the average values for the 10 animals of each batch.

rabbit platelets = test: Ex vivo PAF Acether-induced rabbit PA after per os or IV administration; assay type: in vivo; details: for activity at 0.5 mg/kg / activity at 1 mg/kg / activity at 2 mg/kg: Oryctolagus cuniculus, Platelet, iv, read-out: PAF Acether-induced rabbit PA (% of control); for activity at 0.5 mg/kg: IV 0.5 mg/kg; for activity at 1 mg/kg: IV 1 mg/kg; for activity at 2 mg/kg: IV 2 mg/kg
Description: Drugs were administered per os (2,5 and 10 mg/kg) or by IV route (0.5, 1, 2 mg/kg) and blood samples were taken at different times to test platelet aggregation with PAF-Acether ([…]) (see following table wherein the figures appearing are the ratio to the control with the solvent used, i.e. DMSO).

Sprague-Dowley rats = test: Cutaneous vascular hyperpermeability induced by PAF Acether in the rat; assay type: in vivo; details: 1 mg/kg IV
Description: Method: Intradermal injection of 25 ng of PAF Acether in the dorsal region of the rat with simultaneous IV injection of Evans blue dye (60 mg/kg/5 ml) induces vascular hyperpermeability and wheals formation. (for details see Basran GS, Page CP, Paul W and Morley J-Cromoglycate inhibits responses to platelet-activating factor (PAF Acether) in man: an alternative mode of action for DSCG in asthma-Eur. J. Pharma. (1983) 86 143-144).
These wheals were measured (surface in mm^2) at the inner side of the skin 30 mn after the injections and were taken off, put in 4 ml of formamide, incubated at 65° C. during 24 h in order to extract the dye and measure their coloration (optical density at 620 nm).
Groups of 6 Sprague-Dowley rats weighing 200 g were used and each rat received intradermal injections in two sites of the back. The experiment was performed in comparison with a reference compound, D 600 (methoxy verapamil), a calcium-blocker agent.
Treatments: Tested compounds were administered by IV route injected once simultaneously with the dye.

[2] = 0.5 h, PAF Acether 2.5 nM, 0.5 h
[3] = 0.5 h, PAF Acether 5.0 nM, 0.5 h

## CC1C(=O)OC2C(O)C34C5CC(C(C)(C)C)C36C(OC(=O)C6O)OC4(C(=O)O5)C12O (stereo not drawn) [Ginkgolide B]
Human platelets; blood take at 0.5 h
  % of aggregation with respect to control: 0%
Human platelets; blood take at 1.0 h
  % of aggregation with respect to control: 3.4%
Rat portal vein; Rattus norvegicus, PAF Acether 10^-7 M, added 30 minutes before PAF Acether, read-out: IC50 (antagonism of PAF Acether-induced increase of the basal tonus)
  IC50: 6.8 µg/mL (≈ 16 µM)
Rat portal vein; isolated rat portal vein
  effect on the myogenic activity: without effect
thermal-injured patients
  clinical outcome in thermal-injured patients: faster recovery (decreased oedema, decreased plasma leakage and improvement of clinical outcome)
[1]; PAF Acether 2.5 nM
  IC50: 1880 nM
[1]; PAF Acether 5 nM
  IC50: 3200 nM
Hartley guinea-pig; 5 minutes before PAF Acether 60 ng/kg IV, % of maximal bronchoconstriction, average of 10 animals
  % of bronchoconstriction: 6.2%
Hartley guinea-pig; vs solvent in the same batch
  % of inhibition (bronchoconstriction): 92.3%
Rabbit platelets; [2]
  activity at 0.5 mg/kg: 0%
  activity at 1 mg/kg: 0%
  activity at 2 mg/kg: 0%
Rabbit platelets; [3]
  activity at 0.5 mg/kg: 0%
  activity at 1 mg/kg: 0%
  activity at 2 mg/kg: 0%
Rabbit platelets; 1 h, PAF Acether 2.5 nM, 1 h
  activity at 0.5 mg/kg: 7.4%
  activity at 1 mg/kg: 0%
  activity at 2 mg/kg: 0%
Rabbit platelets; 1 h, PAF Acether 5.0 nM, 1 h
  activity at 0.5 mg/kg: 9.4%
  activity at 1 mg/kg: 1.1%
  activity at 2 mg/kg: 0%
Rabbit platelets; 2 h, PAF Acether 2.5 nM, 2 h
  activity at 0.5 mg/kg: 11.2%
  activity at 1 mg/kg: 4.1%
  activity at 2 mg/kg: 0%
Rabbit platelets; 2 h, PAF Acether 5.0 nM, 2 h
  activity at 0.5 mg/kg: 14.5%
  activity at 1 mg/kg: 7.2%
  activity at 2 mg/kg: 0%
Rabbit platelets; per os 2 mg/kg, PAF Acether 2.5 nM, 0.5 h
  PAF Acether-induced rabbit PA (% of control): 23%
Rabbit platelets; per os 2 mg/kg, PAF Acether 2.5 nM, 1 h
  PAF Acether-induced rabbit PA (% of control): 37%
Rabbit platelets; per os 2 mg/kg, PAF Acether 2.5 nM, 2 h
  PAF Acether-induced rabbit PA (% of control): 54%
Rabbit platelets; per os 2 mg/kg, PAF Acether 5.0 nM, 0.5 h
  PAF Acether-induced rabbit PA (% of control): 34.5%
Rabbit platelets; per os 2 mg/kg, PAF Acether 5.0 nM, 1 h
  PAF Acether-induced rabbit PA (% of control): 47.8%
Rabbit platelets; per os 2 mg/kg, PAF Acether 5.0 nM, 2 h
  PAF Acether-induced rabbit PA (% of control): 71.2%
Rabbit platelets; per os 5 mg/kg, PAF Acether 2.5 nM, 1 h
  PAF Acether-induced rabbit PA (% of control): 7%
Rabbit platelets; per os 5 mg/kg, PAF Acether 2.5 nM, 2 h
  PAF Acether-induced rabbit PA (% of control): 10%
Rabbit platelets; per os 5 mg/kg, PAF Acether 5.0 nM, 0.5 h
  PAF Acether-induced rabbit PA (% of control): 6%
Rabbit platelets; per os 5 mg/kg, PAF Acether 5.0 nM, 1 h
  PAF Acether-induced rabbit PA (% of control): 11.4%
Rabbit platelets; per os 5 mg/kg, PAF Acether 5.0 nM, 2 h
  PAF Acether-induced rabbit PA (% of control): 27.1%
Sprague-Dowley rats; PAF Acether 25 ng intradermal, 30 mn, p < 0.001
  PAF Acether induced wheal, Surface: 58.5 mm^2
Sprague-Dowley rats; optical density at 620 nm, p < 0.001
  PAF Acether induced wheal, Coloration OD: 0.628 OD
Sprague-Dowley rats; vs control
  PAF Acether induced wheal, Coloration % decrease: -45%
  PAF Acether induced wheal, Surface % decrease: -43%

— patent US4734280A, “Treatment or prevention of PAF Acether-induced maladies” (priority 1984, dated 1988)
